Assay results published in paper PMC9772450, “Gel-forming antagonist provides a lasting effect on CGRP-induced vasodilation” (Frontiers in Pharmacology, 2022).
Where two headings read alike, the source gives them in different places.

Legend:
[1] = Release of ADE651 from gel solution in vivo (single-dose pharmacokinetics); design: species or system Sprague-Dawley rats; conditions: rat
Protocol: Single-dose pharmacokinetics of gel solution was investigated in male Sprague-Dawley rats. Rats received a peptide solution via the subcutaneous route. Blood samples were collected at pre-dose, 8 h, 1, 2, 4, and 8 days via a catheter that has been cannulated to the jugular vein (Charles River), and 0.5–1.0 ml of blood samples were collected at each time point. The animals were individually housed, plasma was obtained by centrifugation, and the peptide level in samples was determined by specific ADM2 EIAs (Catalogue no. EK-010–48, Phoenix Pharmaceuticals Inc.). It has a 0% cross-reactivity to ADM or CGRPs and has a sensitivity of 0.19 ng/ml. The Inter-assay variation was <15%.

[2] = Visual (tube-tapping) assay of gel-forming capability and solubility; type: physicochemical; design: key to Gel-forming ability: Y: can form a liquid gel; N: lacks the ability to efficiently form a liquid gel
Protocol: (§1) To evaluate the ability of peptides to form gels in situ, we initially determined this tendency qualitatively based on visual examinations of peptide solutions using a tube-tapping method. In addition, we quantitatively determined the viscosity of select peptide solutions using a viscometer (Rheosense Inc; http://www.rheosense.com/products/viscometers) ([Yan and Pochan, 2010]). In the visual assay, aliquots of peptides were dissolved in an aqueous solution (i.e., de-ionized water, saline, or 5% glucose solution). The peptide that dissolved instantly and stayed as a clear solution without obvious macroscopic change in viscosity at 20 min after mixing was considered soluble. If macroscopic particles of peptides remained in the solution at 20 min after mixing, the peptide was considered insoluble.

[3] = Passage of peptide molecules through Centricon filters; type: physicochemical; conditions: Centricon 30,000 MW cutoff, ADM2 EIA
Text: To evaluate whether gel-formation reduces the movement of peptide molecules in solution, we used the Centricon® filters (Millipore) to separate samples and the carriers based on their molecular mass. The sample is monomeric peptides, and the carrier is the self-assembled gel. One milligram aliquots of the peptides were first dissolved as 0.1% solution in 5% glucose, 0.1% solution in saline, 5% solution in 5% glucose, 10% solution in 5% glucose, and 20% solution in 5% glucose. Ten minutes later, the 5%, 10%, and 20% solutions were diluted to the 0.1% level. Aliquots of these solutions were sampled and dispensed into separate Centricon columns (30,000 MW cutoff), and the monomeric peptide and gel molecules were separated by centrifugation for 15 min (2000 x g). The level of peptide in the elutes was determined by specific EIAs (Phoenix Pharmaceuticals Inc.).

[4] = Viscosity of peptide solutions, Rheosense viscometer; type: physicochemical; conditions: N = 5 per group, result in words
Protocol: as §1
In addition, we quantitatively determined the viscosity of ADE651 and control peptides using the Rheosense viscometer. The peptide solution was loaded onto a Rheosense viscometer chip, and the sample was injected at a constant flow rate through the flow channel with multiple pressure sensors that monitor the pressure drop from the inlet to the outlet. Because the pressure drop is correlated with the shear stress at the boundary wall, the instrument determines the rheological properties based on the standard principles of rheometry ([Yan and Pochan, 2010]).

[5] = tested on: CGRP-induced vasodilation; experiment: Dermal blood flow and vasodilation in rat hindlimbs, laser Doppler imaging; type: in vivo, Sprague-Dawley rats; conditions: rat hindlimb, ADE651 8 mg in 8% solution s.c. at 0 h
Protocol: Adult Sprague Dawley male rats (body weight 150–200 g) were randomly divided into treatment groups. Animals were individually housed during the experiment. After acclimation, rats were anesthetized and stabilized under 2.5% isoflurane, and were placed on a heating pad. Testing articles were prepared just before the experiment and individually administered subcutaneously into the hindlimbs. Human β-CGRP (LifeTein LLC, Hillsborough, NJ) was dissolved in a saline solution, and the antagonist solution was prepared in a 5% glucose solution. […] In this experiment, the antagonist gel solution was administered at 0 h as a liquid solution shortly after dissolution to prevent issues associated with the formation of semi-solid gel when the peptide is dissolved at high levels. […] The amount of blood flow was determined by laser Doppler imaging as described earlier ([Van der Schueren et al., 2007]; [Benschop et al., 2014]). The laser Doppler scan series of the hindlimbs began with two baseline scans and was followed by two scans each at select time points. Data are reported as percent change from the average baseline scans.

[6] = administered as a 25% gel depot; ref Oberg and Lamberts, 2016; cited from earlier work
Text: Our screening of long-acting antagonists has originally focused on lipidated peptides because lipidation is known to increase the half-lives of various peptides by enabling them to be bound by albumin and other serum proteins, therefore reducing elimination by kidneys and degradation by serum proteases ([Drucker et al., 2010]). […] This finding is consistent with earlier studies of benzoylated and lipidated CGRP8-37 analogs which ha ...

[7] = cited from earlier work
[8] = tested on: migraine; conditions: ref Lipton et al., 2019, Switzer et al., 2022, cited from earlier work
Text: Migraine is a common complex neurovascular disorder that is manifested as episodic and predominantly unilateral throbbing headache with hypersensitivity to light, sound, and movement ([Erdener and Dalkara, 2014]; [Schuster and Rapoport, 2016]). According to the World Health Organization, 324 million people worldwide suffer from incapacitating migraine in 2008. In ∼ one-third of patients, migraine headaches are accompanied by an aura involving neurological symptoms such as transient visual, sensory, or motor disturbances ([Goadsby et al., 2002]). In the US, it was reported that 15% of Americans ...

[9] = tested on: capsaicin-induced dermal blood flow; conditions: ref Sinclair et al., 2010; cited from earlier work
Text: It is known that anti-CGRP gepants could occupy a binding site close to the interface of the N-terminal domains of CLR and RAMP1, and act by allosteric regulation ([Miller et al., 2010]). Although the gepants compounds have low IC50 values in receptor activation assays in vitro, it is well documented that gepants need high concentrations to bloc ...

In the case of `CCCCCCCCCCCCCCCC(=O)N[C@@H](CCCCN)C(=O)N[C@H](C(=O)N[C@@H](CCC(N)=O)C(=O)N[C@@H](CCCCN)C(=O)N[C@@H](CC(C)C)C(=O)N[C@@H](CO)C(=O)N[C@@H](C)C(=O)N1CCC[C@H]1C(=O)N[C@H](C(=O)N[C@@H](CC(=O)O)C(=O)N1CCC[C@H]1C(=O)N[C@@H](CO)C(=O)N[C@@H](CO)C(=O)N1CCC[C@H]1C(=O)N[C@@H](Cc1c[nH]cn1)C(=O)N[C@@H](CO)C(=O)N[C@@H](Cc1ccc(O)cc1)C(N)=O)C(C)C)C(C)C` [ADE651], the Tmax ([1]; male, Sprague-Dawley, sc, subcutaneous, 200 µL of 16% solution (32 mg), plasma, ADM2 EIA, three animals, read-out: Time of peak circulating level after administration) is reported as 8 h, the “Sustained presence in the circulation after subcutaneous injection” value ([1]; subcutaneous gel solution) is reported as greater than 1 week and the “Circulating level at 8 days after injection” value ([1]; subcutaneous, 16% solution (32 mg), plasma, ADM2 EIA, versus 0 h, result in words) is reported as “significantly elevated”. For the same compound, the “Appearance of solution in saline at 6–20%” value ([2]; visual) was “cloudy”, the “Solubility in 5% glucose solution” value ([2]; visual) was “soluble from 0.1% to 20%” and the Solubility in saline ([2]; visual) was “low solubility”. The Gel-forming ability ([2]; visual inspection of 11% peptide solutions, tube-tapping, 20 min after mixing) was “Y”, the “Concentration at which the peptide solution forms a gel (becomes viscous)” value ([2]; visual, 20 min after dissolution, vial tilted 90° and tapped) was 6–20% and the “Reduction of peptide level in the elutes from 5%, 10% and 20% solution groups compared to the 0.1% solution group” value ([3]; 2000 x g 15 min, dissolved in 5% glucose, diluted to 0.1% after 10 min, triplicate samples) was “more than 98%”. The “Peptide level in the elute from the 0.1% saline group versus 0.1% solution in 5% glucose group” value ([3]; N = 3 per group, result in words) was “significantly lower”, the “Viscosity of 0.5% solution in 5% glucose” value ([4]; compared with water, saline, 5% glucose, 0.5% and […] ADM) was “significantly higher than that of all other solutions evaluated” and the “CGRP-induced increase in blood flow at the 5 h time point after ADE651 pretreatment” value ([5]; CGRP 1 mg/100 µL at 4 h, N = 3) was 6%. The “Blood flow before the CGRP treatment (4 h time point) versus control animals” value ([5]; result in words) was “significantly lower”.
For Lanreotide, the “Period over which the gel releases the monomer” value [6] is given as “a month”.
In the case of adrenomedullin 2 [ADM2], the “Resident time after subcutaneous injection” value ([7]; in vivo, sc) is given as less than 1 h.
For `C[C@@H]1[C@H](c2ccccc2)C[C@H](NC(=O)c2cnc3c(c2)C[C@@]2(C3)C(=O)Nc3ncccc32)C(=O)N1CC(F)(F)F` [ubrogepant], the “Pain freedom at 2 h, share of acute migraine patients” value ([8]; 14.3% in the placebo group) is listed as 21.8% and the “Absolute difference in the pain-free rate versus placebo” value [8] is listed as 6.4–7.5%.
In the case of `O=C(N[C@@H]1CC[C@@H](c2cccc(F)c2F)CN(CC(F)(F)F)C1=O)N1CCC(n2c(=O)[nH]c3ncccc32)CC1` [telcagepant, reference compound], the “EC (90) to inhibit the capsaicin-induced increase in dermal blood flow” value [9] is listed as roughly 909 nM.
In the case of “adrenomedullin [ADM, reference compound]”, the “Viscosity of 0.5% and […] solutions in 5% glucose” value [4] is given as “like that of 5% glucose solution” and the “Resident time after subcutaneous injection” value ([7]; short half-life, ref Nagata et al., 2022) is given as less than 1 h.
